Laboratory results reported in patent publication US12319676B2, “Substituted amide compounds useful as farnesoid X receptor modulators” (BRISTOL-MYERS SQUIBB COMPANY, priority 2019, dated 2025).

These compounds were tested against T1, human FXR (Homo sapiens, UniProt Q96RI1) (assay: transient human FXR/Gal4-luciferase reporter assay). Settings: Gal4-hFXR fusion construct, luciferase reporter in HEK293 cells; overnight incubation; response as percentage of 8 μM GW-4064 control.
T1 construct: expressed in transfected cells; host or cells: HEK293 cells stably carrying a 5xGal4 response element-luciferase reporter, transiently transfected with pcDNA3.1-Gal4-FXR
T1 sequence (Q96RI1 262-486 limits assumed): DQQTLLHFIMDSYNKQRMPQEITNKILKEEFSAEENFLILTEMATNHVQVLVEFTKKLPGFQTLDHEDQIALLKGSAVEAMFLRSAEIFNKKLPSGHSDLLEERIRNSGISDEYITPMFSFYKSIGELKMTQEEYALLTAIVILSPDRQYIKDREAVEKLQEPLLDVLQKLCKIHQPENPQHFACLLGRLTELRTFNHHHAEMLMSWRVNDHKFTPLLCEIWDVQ
Format: cell-based
Protocol: The exemplified compounds of the present invention were tested in the transient human FXR/Gal4-luciferase reporter assay, and assay results were reported in Table 1 and Examples 1 to 3 together with other analytical data. A Gal4-hFXR fusion construct reporter system was used as the primary assay to characterize compound activity. A construct including 5 copies of the Gal4 promoter response element upstream of a firefly luciferase reporter cDNA was stably expressed in HEK293 cells. This reporter cell line was maintained in Dulbecco's Modified Eagle's medium (DMEM; Gibco) supplemented with 1% penicillin-streptomycin (P/S) solution, 500 μg/mL Zeocin and 10% charcoal/dextran-treated fetal bovine serum (cs-FBS) at 37° C. in a humidified 5% CO2 atmosphere. Another plasmid was constructed in which the human cytomegalovirus promoter in the pcDNA3.1 vector directs the expression of the cDNA encoding a fusion protein comprised of the DNA binding domain from the Gal4 transcription factor fused to the ligand binding domain from human FXR. The day prior to transfection, the reporter cells in culture are detached from the plate with trypsin and plated into a T75 flask at a sufficient density to achieve approximately 90% confluence the next morning. The transfection reagents are prepared by separately diluting 25 μg of the pcDNA3.1-Gal4-FXR plasmid into 1.87 mL of Opti-MEM (Thermo-Fisher), and 40 μL of Lipofectamine 2000 (Thermo-Fisher) into 1.87 mL of Opti-MEM, and then adding the diluted DNA solution into the diluted Lipofectamine 2000 solution and incubating at room temperature for 15-20 minutes. The mixture is further diluted with 10 mL of a solution comprised of DMEM, 10% cs-FBS, and 1% P/S immediately prior to transferring to the cells. The maintenance culture media is aspirated from the cells and the final transfection mixture is added before the cells are incubated overnight at 37° C. in a humidified 5% CO2 atmosphere. This protocol can be scaled up, and the transiently transfected cells can be cryopreserved in an assay-ready format. For compound testing, 100 nL of the compounds (serial dilutions in DMSO) are dispensed with an Echo acoustic dispenser (Labcyte) into the wells of a Corning/Costar clear bottom 384-well white plate. The transfected cells are harvested, counted, and diluted such that 10-25,000 cells in 25 μL are plated into each well of the 384-well compound assay plate. The compound-treated cells are incubated overnight at 37° C. in a humidified 5% CO2 atmosphere. The next morning 25 μL of Steady-Glo (Promega) are added to each well of the plate, the mixture is incubated for 15 min. with shaking, and luminescence is measured on an Envision (Perkin Elmer) plate reader. Background counts from cells treated with DMSO alone are subtracted from all raw counts, and the corrected values are converted to a percentage of the control response attained with 8 μM GW-4064.

Point of comparison: `CS(=O)(=O)Nc1cccc(N(CC23CCC(c4nc(C5CC5)no4)(CC2)CC3)C(=O)C23CC(F)(C2)C3)c1` [Example 66, N-((4-(3-cyclopropyl-1,2,4-oxadiazol-5-yl)bicyclo[2.2.2]octan-1-yl)methyl)-3-fluoro-N-(3-(methylsulfonamido)phenyl)bicyclo[1.1.1]pentane-1-carboxamide], EC50 4 µM. Against it:
- CC(F)(F)c1ccc(C23CCC(CN(c4cccc(Nc5ccc(C6(C#N)CC6)cc5)c4)C(=O)[C@H]4C[C@](O)(C(F)(F)F)C4)(CC2)CC3)nc1 [Example 93, (1S,3S)—N-(3-((4-(1-cyanocyclopropyl)phenyl)amino)phenyl)-N-((4-(5-(1,1-difluoroethyl)pyridin-2-yl)bicyclo[2.2.2]octan-1-yl)methyl)-3-hydroxy-3-(trifluoromethyl)cyclobutane-1-carboxamide] — 2.8-fold lower, 1.42 µM
- CC(C)(C)c1noc(C23CCC(CN(c4cccc(P(C)(C)=O)c4)C(=O)[C@H]4C[C@](O)(C(F)(F)F)C4)(CC2)CC3)n1 [Example 45, (1S,3S)-N-((4-(3-(tert-butyl)-1,2,4-oxadiazol-5-yl)bicyclo[2.2.2]octan-1-yl)methyl)-N-(3-(dimethylphosphoryl)phenyl)-3-hydroxy-3-(trifluoromethyl)cyclobutane-1-carboxamide] — the same, 4 µM
- COC(=O)CCc1cccc(N(CC23CCC(c4ccc(N(C)C)cc4)(CC2)CC3)C(=O)C2CCCCC2)c1 [Example 89, Methyl 3-(3-(N-((4-(4-(dimethylamino)phenyl)bicyclo[2.2.2]octan-1-yl)methyl)cyclohexanecarboxamido)phenyl)propanoate] — 3.6-fold lower, 1.12 µM
- CC(C)(C)c1noc(C23CCC(CN(C(=O)C4CC(F)(F)C4)c4cccc(P(C)(C)=O)c4)(CC2)CC3)n1 [Example 44, N-((4-(3-(tert-butyl)-1,2,4-oxadiazol-5-yl)bicyclo[2.2.2]octan-1-yl)methyl)-N-(3-(dimethylphosphoryl)phenyl)-3,3-difluorocyclobutane-1-carboxamide] — the same, 4 µM
- O=C(N(CC12CCC(c3ccc(C(F)(F)F)cn3)(CC1)CC2)c1cccc(Nc2ccc(C3CC3)cn2)c1)C12CC(F)(C1)C2 [Example 109, N-(3-((5-cyclopropylpyridin-2-yl)amino)phenyl)-3-fluoro-N-((4-(5-(trifluoromethyl)pyridin-2-yl)bicyclo[2..2.2]octan-1-yl)methyl)bicyclo[1.1.1]pentane-1-carboxamide] — 14-fold lower, 0.292 µM
- CC(F)(F)c1nc(C23CCC(CN(C(=O)N[C@H]4CC[C@](C)(O)CC4)c4cccc(Br)c4)(CC2)CC3)no1 [Example 30, 1-(3-bromophenyl)-1-((4-(5-(1,1-difluoroethyl)-1,2,4-oxadiazol-3-yl)bicyclo[2.2.2]octan-1-yl)methyl)-3-((1R,4R)-4-hydroxy-4-methylcyclohexyl)urea] — 27-fold lower, 0.15 µM
- CC(F)(F)c1nc(C23CCC(CN(C(=O)C4CCC(F)(F)CC4)c4cccc(F)c4)(CC2)CC3)no1 [Example 9, N-((4-(5-(1,1-difluoroethyl)-1,2,4-oxadiazol-3-yl)bicyclo[2.2.2]octan-1-yl)methyl)-4,4-difluoro-N-(3-fluorophenyl)cyclohexane-1-carboxamide] — 8.9-fold lower, 0.451 µM
- CC(C)(C)c1nc(C23CCC(CN(C(=O)C45CC(F)(C4)C5)c4cccc(OCC#N)c4)(CC2)CC3)no1 [Example 111, N-((4-(5-(tert-butyl)-1,2,4-oxadiazol-3-yl)bicyclo[2.2.2]octan-1-yl)methyl)-N-(3-(cyanomethoxy)phenyl)-3-fluorobicyclo[1.1.1]pentane-1-carboxamide] — 6.5-fold lower, 0.618 µM
- CC(F)(F)c1nc(C23CCC(CN(C(=O)N[C@H]4CC[C@](C)(O)CC4)c4cccc(C#N)c4)(CC2)CC3)no1 [Example 99, 1-(3-cyanophenyl)-1-((4-(5-(1,1-difluoroethyl)-1,2,4-oxadiazol-3-yl)bicyclo[2.2.2]octan-1-yl)methyl)-3-((1R,4R)-4-hydroxy-4-methylcyclohexyl)urea] — 10-fold lower, 0.391 µM
- CC(C)(C)c1nc(C23CCC(CN(C(=O)C45CC(F)(C4)C5)c4cccc(Nc5ccc(C(F)(F)F)cc5)c4)(CC2)CC3)no1 [Example 87, N-((4-(5-(tert-butyl)-1,2,4-oxadiazol-3-yl)bicyclo[2.2.2]octan-1-yl)methyl)-3-fluoro-N-(3-((4-(trifluoromethyl)phenyl)amino)phenyl)bicyclo[1.1.1]pentane-1-carboxamide] — 2-fold lower, 2 µM
- CC(C)(C)c1nc(C23CCC(CN(C(=O)C45CC(F)(C4)C5)c4cccc(Nc5ccc(OC(F)F)cc5)c4)(CC2)CC3)no1 [Example 84, N-((4-(5-(tert-butyl)-1,2,4-oxadiazol-3-yl)bicyclo[2.2.2]octan-1-yl)methyl)-N-(3-((4-(difluoromethoxy)phenyl)amino)phenyl)-3-fluorobicyclo[1.1.1]pentane-1-carboxamide] — 48-fold lower, 0.084 µM
- CC(F)(F)c1nc(C23CCC(CN(c4cccc(C(F)(F)F)c4)C(=O)[C@H]4C[C@](O)(C(F)(F)F)C4)(CC2)CC3)no1 [Example 15, N-((4-(5-(1,1-difluoroethyl)-1,2,4-oxadiazol-3-yl)bicyclo[2.2.2]octan-1-yl)methyl)-3-hydroxy-3-(trifluoromethyl)-N-(3-(trifluoromethyl)phenyl)cyclobutane-1-carboxamide] — 23-fold lower, 0.176 µM
- Cn1nc(C2CC2)cc1C12CCC(CN(C(=O)C3CCC(F)(F)CC3)c3cccc(S(C)(=O)=O)c3)(CC1)CC2 [Example 77, N-((4-(3-cyclopropyl-1-methyl-1H-pyrazol-5-yl)bicyclo[2.2.2]octan-1-yl)methyl)-4,4-difluoro-N-(3-(methylsulfonyl)phenyl) cyclohexane-1-carboxamide] — the same, 4 µM
- COC(=O)COc1cccc(N(CC23CCC(c4ccc(N(C)C)c(Cl)c4)(CC2)CC3)C(=O)C2CCCCC2)c1 [Example 79, Methyl 2-(3-(N-((4-(3-chloro-4-(dimethylamino)phenyl)bicyclo[2.2.2]octan-1-yl)methyl)cyclohexanecarboxamido)phenoxy) acetate] — 3.8-fold lower, 1.04 µM
- O=C(N(CC12CCC(c3ccc(C(F)(F)F)cn3)(CC1)CC2)c1cccc(Nc2ncc(OC(F)F)cn2)c1)C12CC(F)(C1)C2 [Example 106, N-(3-((5-(difluoromethoxy)pyrimidin-2-yl)amino)phenyl)-3-fluoro-N-((4-(5-(trifluoromethyl)pyridin-2-yl)bicyclo[.2.2.2]octan-1-yl)methyl)bicyclo[1.1.1]pentane-1-carboxamide] — 30-fold lower, 0.132 µM
- Cn1nc(C2CC2)cc1C12CCC(CN(C(=O)C3CCC(F)(F)CC3)c3cccc(C#N)c3)(CC1)CC2 [Example 73, N-(3-cyanophenyl)-N-((4-(3-cyclopropyl-1-methyl-1H-pyrazol-5-yl)bicyclo[2.2.2]octan-1-yl)methyl)-4,4-difluorocyclohexane-1-carboxamide] — 1.9-fold lower, 2.13 µM
- Cn1nc(C2CC2)cc1C12CCC(CN(c3cccc(C#N)c3)C(=O)[C@H]3C[C@@](C)(O)C3)(CC1)CC2 [Example 74, (1S,3S)-N-(3-cyanophenyl)-N-((4-(3-cyclopropyl-1-methyl-1H-pyrazol-5-yl)bicyclo[2.2.2]octan-1-yl)methyl)-3-hydroxy-3-methylcyclobutane-1-carboxamide] — 3-fold lower, 1.35 µM
- CC(C)(C)c1nc(C23CCC(CN(C(=O)C45CC(F)(C4)C5)c4cccc(Oc5ccc(OC(F)F)cn5)c4)(CC2)CC3)no1 [Example 119, N-((4-(5-(tert-butyl)-1,2,4-oxadiazol-3-yl)bicyclo[2.2.2]octan-1-yl)methyl)-N-(3-((5-(difluoromethoxy)pyridin-2-yl)oxy)phenyl)-3-fluorobicyclo[1.1.1]pentane-1-carboxamide] — 7.5-fold lower, 0.536 µM
- N#Cc1cccc(N(CC23CCC(c4noc(C(F)(F)F)n4)(CC2)CC3)C(=O)C23CC(F)(C2)C3)c1 [Example 114, N-(3-cyanophenyl)-3-fluoro-N-((4-(5-(trifluoromethyl)-1,2,4-oxadiazol-3-yl)bicyclo[2.2.2]octan-1-yl)methyl)bicyclo[1.1.1]pentane-1-carboxamide] — 50-fold lower, 0.08 µM
